The values that follow come from patent publication US20250092084A1, “C7, C12, AND C16 SUBSTITUTED NEUROACTIVE STEROIDS AND THEIR METHODS OF USE” (Sage Therapeutics, Inc., priority 2016, published 2025).

A value given as a limit tells only on which side of the number the result lay.

This experiment has as its target rat brain cortical membranes (GABA receptor complex, [35S]-TBPS binding). Put plainly: Steroid inhibition of [35S]-TBPS binding. Particulars: 3 nM [35S]-TBPS, in the presence of 5 mM GABA. How it is done: [^35S]-t-Butylbicyclophosphorothionate (TBPS) binding assays using rat brain cortical membranes in the presence of 5 mM GABA has been described (Gee et al, J Pharmacol. Exp. Ther. 1987, 241, 346-353; Hawkinson et al, Mol. Pharmacol. 1994, 46, 977-985; Lewin, A. H et al., Mol. Pharmacol. 1989, 35, 189-194).
Briefly, cortices are rapidly removed following decapitation of carbon dioxide-anesthetized Sprague-Dawley rats (200-250 g). The cortices are homogenized in 10 volumes of ice-cold 0.32 M sucrose using a glass/teflon homogenizer and centrifuged at 1500×g for 10 min at 4° C. The resultant supernatants are centrifuged at 10,000×g for 20 min at 4° C. to obtain the P2 pellets. The P2 pellets are resuspended in 200 mM NaCl/50 mM Na—K phosphate pH 7.4 buffer and centrifuged at 10,000×g for 10 min at 4° C. This washing procedure is repeated twice and the pellets are resuspended in 10 volumes of buffer. Aliquots ([…]) of the membrane suspensions are incubated with 3 nM [^35S]-TBPS and […] aliquots of test drug dissolved in dimethyl sulfoxide (DMSO) (final 0.5%) in the presence of 5 mM GABA. The incubation is brought to a final volume of 1.0 mL with buffer. Nonspecific binding is determined in the presence of […] and ranged from 15 to 25%. Following a 90 min incubation at room temp, the assays are terminated by filtration through glass fiber filters (Schleicher and Schuell No. 32) using a cell harvester (Brandel) and rinsed three times with ice-cold buffer. Filter bound radioactivity is measured by liquid scintillation spectrometry. Non-linear curve fitting of the overall data for each drug averaged for each concentration is done using Prism (GraphPad). […] The concentration of test compound producing 50% inhibition (IC50) of specific binding and the maximal extent of inhibition (Imax) are determined for the individual experiments with the same model used for the overall data and then the means±SEMs of the individual experiments are calculated.
Various compounds are or can be screened to determine their potential as modulators of [^35S]-TBPS binding in vitro. These assays are or can be performed in accordance with the above discussed procedures.
Turning to `CC(=O)[C@H]1[C@H](C)C[C@H]2[C@@H]3CC[C@H]4C[C@](C)(O)CC[C@@H]4[C@H]3CC[C@@]21C` (stereo in doubt) [Compound 91], the IC50 was 10 to 50 nM.

Turning to `C[C@@H]1C[C@H]2C[C@](C)(O)CC[C@]2(C)[C@H]2CC[C@]3(C)[C@@H](C#N)CC[C@H]3[C@H]12` [Compound 1], the IC50 was at least 500 nM.

For `C[C@H]1C[C@H]2C[C@](C)(O)CC[C@]2(C)[C@H]2CC[C@]3(C)[C@@H](C#N)CC[C@H]3[C@H]12` [Compound 2], the IC50 is at least 500 nM.

For `CO[C@H]1CC[C@H]2[C@@H]3[C@H](C)C[C@H]4C[C@](C)(O)CC[C@]4(C)[C@H]3CC[C@]12C` [Compound 3], the IC50 is at least 500 nM.

With `CO[C@H]1CC[C@H]2[C@@H]3[C@@H](C)C[C@H]4C[C@](C)(O)CC[C@]4(C)[C@H]3CC[C@]12C` [Compound 4], the IC50 was at least 500 nM.

As for `CC(=O)[C@H]1CC[C@H]2[C@@H]3[C@H](C)C[C@H]4C[C@](C)(O)CC[C@]4(C)[C@H]3CC[C@]12C` [Compound 5], the IC50 is at least 500 nM.

In the case of `CC(=O)[C@H]1CC[C@H]2[C@@H]3[C@@H](C)C[C@H]4C[C@](C)(O)CC[C@]4(C)[C@H]3CC[C@]12C` [Compound 6], the IC50 was at least 500 nM.

With `C[C@H]1C[C@H]2C[C@](C)(O)CC[C@]2(C)[C@H]2CC[C@]3(C)[C@@H](C(=O)Cn4cc5ccncc5n4)CC[C@H]3[C@H]12` [Compound 7], the IC50 is at least 500 nM.

Turning to `C[C@@H]1C[C@H]2C[C@](C)(O)CC[C@]2(C)[C@H]2CC[C@]3(C)[C@@H](C(=O)Cn4cc5ccncc5n4)CC[C@H]3[C@H]12` [Compound 8], the IC50 was at least 500 nM.

With `C[C@H]1C[C@H]2C[C@](C)(O)CC[C@]2(C)[C@H]2CC[C@]3(C)[C@@H](C(=O)Cn4ncc5ccncc54)CC[C@H]3[C@H]12` [Compound 9], the IC50 was in the range of 100 to 500 nM.

Turning to `C[C@@H]1C[C@H]2C[C@](C)(O)CC[C@]2(C)[C@H]2CC[C@]3(C)[C@@H](C(=O)Cn4ncc5ccncc54)CC[C@H]3[C@H]12` [Compound 10], the IC50 was at least 500 nM.

Take `COC[C@H]1C[C@H]2C[C@](C)(O)CC[C@]2(C)[C@H]2CC[C@]3(C)[C@@H](C(C)=O)CC[C@H]3[C@H]12` [Compound 11]: the IC50 is at least 500 nM.

As for `COC[C@@H]1C[C@H]2C[C@](C)(O)CC[C@]2(C)[C@H]2CC[C@]3(C)[C@@H](C(C)=O)CC[C@H]3[C@H]12` [Compound 12], the IC50 is at least 500 nM.

For `COC[C@H]1C[C@H]2C[C@](C)(O)CC[C@]2(C)[C@H]2CC[C@]3(C)[C@@H](C(=O)Cn4cc(C#N)cn4)CC[C@H]3[C@H]12` [Compound 13], the concentration for half-maximal inhibition (IC50) is at least 500 nM.

On to `COC[C@@H]1C[C@H]2C[C@](C)(O)CC[C@]2(C)[C@H]2CC[C@]3(C)[C@@H](C(=O)Cn4cc(C#N)cn4)CC[C@H]3[C@H]12` [Compound 14], for which the IC50 was at least 500 nM.

For `COC[C@H]1C[C@H]2C[C@](C)(O)CC[C@]2(C)[C@H]2CC[C@]3(C)[C@@H](C(=O)Cn4nc5ccc(OC)cc5n4)CC[C@H]3[C@H]12` [Compound 15], the IC50 was at least 500 nM.

Consider `COC[C@H]1C[C@H]2C[C@](C)(O)CC[C@]2(C)[C@H]2CC[C@]3(C)[C@@H](C(=O)Cn4nnc5ccc(OC)cc54)CC[C@H]3[C@H]12` [Compound 16], for which the IC50 is at least 500 nM.

Consider `COC[C@H]1C[C@H]2C[C@](C)(O)CC[C@]2(C)[C@H]2CC[C@]3(C)[C@@H](C(=O)Cn4nnc5cc(OC)ccc54)CC[C@H]3[C@H]12` [Compound 17], for which the IC50 is at least 500 nM.

On to `COC[C@@H]1C[C@H]2C[C@](C)(O)CC[C@]2(C)[C@H]2CC[C@]3(C)[C@@H](C(=O)Cn4nc5ccc(OC)cc5n4)CC[C@H]3[C@H]12` [Compound 18], for which the IC50 is at least 500 nM.

In the case of `COC[C@@H]1C[C@H]2C[C@](C)(O)CC[C@]2(C)[C@H]2CC[C@]3(C)[C@@H](C(=O)Cn4nnc5ccc(OC)cc54)CC[C@H]3[C@H]12` [Compound 19], the IC50 is at least 500 nM.

`COC[C@@H]1C[C@H]2C[C@](C)(O)CC[C@]2(C)[C@H]2CC[C@]3(C)[C@@H](C(=O)Cn4nnc5cc(OC)ccc54)CC[C@H]3[C@H]12` [Compound 20]: the IC50 was at least 500 nM.

Consider `COC[C@H]1C[C@H]2C[C@](C)(O)CC[C@]2(C)[C@H]2CC[C@]3(C)[C@@H](C(=O)Cn4cc5ccncc5n4)CC[C@H]3[C@H]12` [Compound 21], for which the IC50 is at least 500 nM.

With `COC[C@@H]1C[C@H]2C[C@](C)(O)CC[C@]2(C)[C@H]2CC[C@]3(C)[C@@H](C(=O)Cn4ncc5ccncc54)CC[C@H]3[C@H]12` [Compound 23], the IC50 was at least 500 nM.

With `COC[C@@H]1C[C@H]2C[C@](C)(O)CC[C@]2(C)[C@H]2CC[C@]3(C)[C@@H](C(=O)Cn4cc5ccncc5n4)CC[C@H]3[C@H]12` [Compound 24], the IC50 was at least 500 nM.

Take `CC(=O)[C@H]1CC[C@H]2[C@@H]3[C@H](O)C[C@H]4C[C@](C)(O)CC[C@]4(C)[C@H]3CC[C@]12C` [Compound 25]: the half-inhibitory concentration (IC50) is at least 500 nM.

In the case of `C[C@@]1(O)CC[C@@]2(C)[C@@H](C[C@@H](O)[C@@H]3[C@@H]2CC[C@]2(C)[C@@H](C(=O)Cn4cc(C#N)cn4)CC[C@@H]32)C1` [Compound 26], the IC50 was at least 500 nM.

As for `C[C@@]1(O)CC[C@@]2(C)[C@@H](C[C@@H](O)[C@@H]3[C@@H]2CC[C@]2(C)[C@@H](C(=O)Cn4cc5ccncc5n4)CC[C@@H]32)C1` [Compound 27], the 50% inhibitory concentration (IC50) is at least 500 nM.

`C[C@@]1(O)CC[C@@]2(C)[C@@H](C[C@@H](O)[C@@H]3[C@@H]2CC[C@]2(C)[C@@H](C(=O)Cn4ncc5ccncc54)CC[C@@H]32)C1` [Compound 28]: the IC50 was at least 500 nM.

As to `CO[C@@H]1C[C@H]2C[C@](C)(O)CC[C@]2(C)[C@H]2CC[C@]3(C)[C@@H](C(C)=O)CC[C@H]3[C@H]12` [Compound 29], the IC50 is at least 500 nM.

`CO[C@H]1C[C@H]2C[C@](C)(O)CC[C@]2(C)[C@H]2CC[C@]3(C)[C@@H](C(C)=O)CC[C@H]3[C@H]12` [Compound 30]: the IC50 is at least 500 nM.

As for `CO[C@H]1C[C@H]2C[C@](C)(O)CC[C@]2(C)[C@H]2CC[C@]3(C)[C@@H](C(=O)Cn4cc(C#N)cn4)CC[C@H]3[C@H]12` [Compound 31], the IC50 is at least 500 nM.

On to `Cc1nnn(CC(=O)[C@H]2CC[C@H]3[C@@H]4[C@H](C)C[C@H]5C[C@](C)(O)CC[C@]5(C)[C@H]4CC[C@]23C)n1` [Compound 34], for which the IC50 is at least 500 nM.

For `Cc1nnnn1CC(=O)[C@H]1CC[C@H]2[C@@H]3[C@H](C)C[C@H]4C[C@](C)(O)CC[C@]4(C)[C@H]3CC[C@]12C` [Compound 36], the IC50 is at least 500 nM.

As to `C[C@@H]1C[C@H]2C[C@](C)(O)CC[C@]2(C)[C@H]2CC[C@]3(C)[C@@H](C(=O)Cn4cc(C#N)cn4)CC[C@H]3[C@H]12` [Compound 38], the IC50 was 100 to 500 nM.

For the compound `C[C@H]1C[C@H]2C[C@](C)(O)CC[C@]2(C)[C@H]2CC[C@]3(C)[C@@H](C(=O)Cn4cc(C#N)cn4)CC[C@H]3[C@H]12` [Compound 39], the IC50 was 100 to 500 nM.

Consider `C[C@@]1(O)CC[C@@]2(C)[C@@H](CC[C@@H]3[C@@H]2C[C@@H](O)[C@]2(C)[C@@H](C#N)CC[C@@H]32)C1` [Compound 40], for which the IC50 is at least 500 nM.

Regarding `CO[C@@H]1C[C@H]2[C@@H](CC[C@H]3C[C@](C)(O)CC[C@@]32C)[C@@H]2CC[C@H](C#N)[C@@]12C` [Compound 41], the IC50 was in the range of 100 to 500 nM.

As to `CO[C@H]1CC[C@H]2[C@@H]3CC[C@H]4C[C@](C)(O)CC[C@]4(C)[C@H]3C[C@@H](OC)[C@]12C` [Compound 42], the IC50 lay within 100 to 500 nM.

In the case of `CO[C@@H]1C[C@H]2[C@@H](CC[C@H]3C[C@](C)(O)CC[C@@]32C)[C@@H]2CC[C@H](C(C)=O)[C@@]12C` [Compound 43], the IC50 was 100 to 500 nM.

What is called IC50 is the concentration that gives 50% inhibition.
